Source: patent US20040259096A1, “Receptor capture assay” (priority 2001, published 2004)

How the values were obtained:
[1] = test system: AhR; assay: Receptor capture assay, real-time PCR, rodent cytosol as source of AhR; assay type: biochemical
Experimental: (§1) A set of calibrators consisting of 5000, 2500, 1250, […], 313, 156, and 78 parts per trillion (ppt or pg/ml) 2,3,7,8-tetrachlorodibenzo-p-dioxin (TCDD) was prepared in methanol. In addition to TCDD a set of calibrators for AhR agonist, beta-naphthoflavone (BNF) was prepared and analyzed in the assay. Separately, 25 ul of 1:50,000 dilution of 10 uM stock nucleic acid-tracer was added per 1 ml of rodent cytosol, which was the source of AhR, and was aliquoted into glass tubes. The standards were diluted 1:20 into 50-100 ul of rodent cytosol, and incubated for 1-2 hr at room temperature to 37° C. Following incubation, 40 to 100 ul of the reaction was transferred to each well of the antibody-coated Capture Strip and incubated on a shaking platform for 30 min to 1 hr at room temperature. The Capture Strips were washed 5 times with Wash Buffer B, and aspirated; optionally soaking wells for 30 sec-5 min with wash buffer during each cycle. Taqman® Universal PCR Master Mix, primers, and Taqman® probe (Applied Biosystems, Calif.) were added, and adhesive cover applied. PCR was performed and analyzed using an ABI PRISM® 7700, using default settings: 50° C., 2 min, 95° C. 10 min, and 40 cycles of [95° C., 15 sec, 60° C., 60 sec]. A threshold cycle (Ct) was determined for each reaction The Ct represents the PCR cycle at which an increase in reporter fluorescence above baseline signal can first be detected.

[2] = target: T1, AhR (Cavia porcellus, UniProt Q6J287); assay: Receptor capture assay, real-time PCR, AhR derived from guinea pig; assay type: biochemical; set-up: The cytosol containing AhR heteromers was stored at; from tissue; host or cells: liver cytosol of Hartley guinea pigs
T1 sequence (Q6J287 1-846): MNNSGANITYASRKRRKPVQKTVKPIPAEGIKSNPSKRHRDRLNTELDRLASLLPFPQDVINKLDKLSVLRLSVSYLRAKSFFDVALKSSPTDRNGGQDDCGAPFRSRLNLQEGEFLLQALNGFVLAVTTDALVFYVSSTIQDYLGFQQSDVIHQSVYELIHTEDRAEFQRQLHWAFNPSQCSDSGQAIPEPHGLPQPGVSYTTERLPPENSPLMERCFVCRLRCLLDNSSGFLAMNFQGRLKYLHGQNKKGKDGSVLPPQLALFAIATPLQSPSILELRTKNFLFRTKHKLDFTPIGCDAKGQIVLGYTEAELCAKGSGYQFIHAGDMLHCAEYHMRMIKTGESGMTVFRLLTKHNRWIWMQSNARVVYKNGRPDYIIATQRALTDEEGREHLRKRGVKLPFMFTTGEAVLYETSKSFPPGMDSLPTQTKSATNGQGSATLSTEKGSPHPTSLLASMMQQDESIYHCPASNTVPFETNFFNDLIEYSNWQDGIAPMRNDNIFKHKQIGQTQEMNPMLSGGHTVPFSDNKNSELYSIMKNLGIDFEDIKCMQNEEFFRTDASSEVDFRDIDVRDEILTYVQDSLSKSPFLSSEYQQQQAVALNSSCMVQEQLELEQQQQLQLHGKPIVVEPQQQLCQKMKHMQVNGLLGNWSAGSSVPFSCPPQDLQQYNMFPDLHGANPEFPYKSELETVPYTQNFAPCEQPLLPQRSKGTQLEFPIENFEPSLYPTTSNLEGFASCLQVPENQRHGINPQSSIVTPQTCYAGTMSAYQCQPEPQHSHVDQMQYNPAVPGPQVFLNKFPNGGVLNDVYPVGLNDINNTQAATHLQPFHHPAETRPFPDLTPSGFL
Experimental: as §1, with “10 min, and 40 cycles of [95° C., 15 sec, 60° C., 60 sec].” left out

## Clc1cc2c(cc1Cl)Oc1cc(Cl)c(Cl)cc1O2 [TCDD, 2,3,7,8-tetrachlorodibenzo-p-dioxin]
[1]; TCDD 78 ppt
  Ct Values: 24.52
[1]; TCDD 156 ppt
  Ct Values: 23.81
[1]; TCDD 313 ppt
  Ct Values: 23.16
[1]; TCDD 1250 ppt
  Ct Values: 21.3
[1]; TCDD 2500 ppt
  Ct Values: 20.5
[1]; TCDD 5000 ppt
  Ct Values: 20.28
[2]
  slope of dose-response curve: −1.042
[2]; pg of TCDD in the assay
  EC50 of dose-response curve: 2.6 pg
